From US7494991B2, “Rifamycin analogs and uses thereof” (ActivBiotics Pharma, LLC, priority 2003, dated 2009)
Values after ≈ are worked out from the molar mass of the structure shown.

Key:
H. flu = assay: MIC assay, H. flu; assay type: cell-based, H. influenza
E. coli = assay: MIC assay, E. coli; assay type: cell-based
E. faecalis = assay: MIC assay, E. faecalis; assay type: cell-based
S. aureus = assay: MIC assay, S. aureus; assay type: cell-based
S. pneumo. = assay: MIC assay, S. pneumo.; assay type: cell-based, S. pneumoniae
C. trachomatis = assay: MIC assay, C. trachomatis; assay type: cell-based

Structure (SMILES)	MIC (μg/mL) H. flu (H. flu) [µg/mL]	MIC (μg/mL) E. coli (E. coli) [µg/mL]	MIC (μg/mL) E. faecalis (E. faecalis) [µg/mL]	MIC (μg/mL) S. aureus (S. aureus) [µg/mL]	MIC (μg/mL) S. pneumo. (S. pneumo.) [µg/mL]	MIC (μg/mL) C. trachomatis (C. trachomatis) [µg/mL]
CO[C@H]1/C=C/O[C@@]2(C)Oc3c(C)c(O)c4c(=O)c(c5oc6c7c(cc(O)c6nc-5c4c3C2=O)N(C)CCN7C)NC(=O)/C(C)=C\C=C\[C@H](C)[C@H](O)[C@@H](C)[C@@H](O)[C@@H](C)[C@H](OC(C)=O)[C@@H]1C [Compound 1]	1 (≈ 1130 nM)	8 (≈ 9040 nM)	1 (≈ 1130 nM)	0.008 (≈ 9.04 nM)	0.00012 (≈ 0.136 nM)	6.4e-05 (≈ 0.0723 nM)
CO[C@H]1/C=C/O[C@@]2(C)Oc3c(C)c(O)c4c(=O)c(c5oc6c7c(cc(O)c6nc-5c4c3C2=O)N(C)CCN7C)NC(=O)/C(C)=C\C=C\[C@H](C)[C@H](O)[C@@H](C)[C@@H](O)[C@@H](C)[C@H](O)[C@@H]1C [Compound 2]	2 (≈ 2370 nM)	8 (≈ 9490 nM)	1 (≈ 1190 nM)	0.5 (≈ 593 nM)	0.06 (≈ 71.2 nM)	0.001 (≈ 1.19 nM)
CO[C@H]1/C=C/O[C@@]2(C)Oc3c(C)c(O)c4c(=O)c(c5oc6c7c(cc(O)c6nc-5c4c3C2=O)N(C)CCCN7C)NC(=O)/C(C)=C\C=C\[C@H](C)[C@H](O)[C@@H](C)[C@@H](O)[C@@H](C)[C@H](OC(C)=O)[C@@H]1C [Compound 3]	2 (≈ 2220 nM)	>8	4 (≈ 4450 nM)	0.06 (≈ 66.7 nM)	0.008 (≈ 8.9 nM)	6.4e-05 (≈ 0.0712 nM)
CO[C@H]1/C=C/O[C@@]2(C)Oc3c(C)c(O)c4c(=O)c(c5oc6c7c(cc(O)c6nc-5c4c3C2=O)N(C)CCCN7C)NC(=O)/C(C)=C\C=C\[C@H](C)[C@H](O)[C@@H](C)[C@@H](O)[C@@H](C)[C@H](O)[C@@H]1C [Compound 4]	2 (≈ 2330 nM)	>8	1 (≈ 1170 nM)	0.12 (≈ 140 nM)	0.00012 (≈ 0.14 nM)	0.001 (≈ 1.17 nM)
